US20250017964A1, “ENGINEERING OR INDUCING PDGF AND/OR PDGFR SIGNALING TO ENHANCE NK CELL THERAPY” (City of Hope, priority 2021, published 2025)

Tested on: PDGFRβ
Test: PDGFRβ localisation: immunofluorescence and immunoblot of cell fractions
Type: cell-based, human
Protocol: FIGS. 1A-1J. IL-15 induces PDGFRβ expression in human NK cells. (A-C) NK cells were purified from PBMCs of healthy donors and stimulated with IL-15 (10 ng/ml) for 24 h. Expression levels of PDGFRα and PDGFRβ were examined by flow cytometry. Data shown are representative dot plots (A), percentages (B), and mean fluorescence intensity (MFI) of PDGFRβ in NK cells (C) (n=20). Resting NK cells were used as the control. (D-E) NK cells were treated with various doses of IL-15 for 24 h (D) or with the same dose of IL-15 (10 ng/ml) at the indicated times (E). Data shown are the percentages of PDGFRβ^+ NK cells among total NK cells (n=5). (F) Immunofluorescence analysis of PDGFRβ expression on resting and IL-15-treated NK cells. Sodium-potassium ATPase was used as a cell membrane marker. Bar=20 μm. (G) Expression of PDGFRβ in the cytoplasmic, nuclear, and cell membrane fractions of NK cells determined by immunoblotting. […] Expression levels of PDGFRβ were then determined by flow cytometry. […]
RNA was isolated using an RNeasy Mini Kit (QIAGEN) and reversely transcribed to cDNA with a PrimeScript RT Reagent Kit with gDNA Eraser (Takara Bio) according to the manufacturer's protocol. mRNA expression levels were analyzed using SYBR Green qPCR Master Mix and a QuantStudio 12K Flex Real-Time PCR System (both from Thermo Fisher Scientific). […]

IL-15: recombinant human IL-15 (200-15); recombinant murine IL-15 in the mouse NK cell test
PDGFRβ localisation by immunofluorescence (IL-15-treated versus resting NK cells): expressed on the membrane
PDGFRβ in cytoplasmic, nuclear and cell membrane fractions by immunoblotting (after stimulation by IL-15): enriched in the cytoplasm and translocated to the cell membrane
